Test results from US11214563B2 (JANSSEN PHARMACEUTICA NV, priority 2019, dated 2022).

Experiments:
[1] = Liver microsomal stability (extraction ratio); assay type: in vitro ADME; conditions: test compound 1 μM; 0.5 mg/mL liver microsomes; species not stated in Table 4 (method: mouse, rat, and human)
Experimental: Protocol for Liver Microsomal Stability (Extraction Ratio)
Liver Microsomal Stability. Microsomal stability studies (Chrovian et al, “H-Pyrrolo[3,2-b]pyridine GluN2B-Selective Negative Allosteric Modulators”. ACS Med Chem Lett. 2019 Jan. 10; 10(3):261-266) were conducted on a Biomek@ FX Robotic Liquid Handling Workstation (Beckman Coulter, Brea, Calif.), which consists of a 96-channel pipette head, a 12-position workstation deck, and a plate incubator. Test compounds (1 μM) were spiked in a reaction mix consisting of 100 mM potassium phosphate buffer (pH 7.4), 3 mM MgCl2, and 0.5 mg/mL liver microsomes from mouse, rat, and human (BD Gentest). The reaction was brought to 37° C. and initiated by adding NADPH to a final concentration of 1 mM. After mixing on the plate deck, […] aliquots were excised from the reaction plate at 0, 5, 10, 20, 40, and 60 min and quenched with four volumes of acetonitrile spiked with […] of the internal standard phenytoin. Quenched plates were centrifuged at 5700 rpm for 10 min at 4° C., and supernatant was diluted 1:3 in water before LC/MS/MS analysis. The compound half-lives were derived from plots of the ln of percent remaining compound over time to determine the intrinsic clearance. The predicted hepatic clearance was derived from the intrinsic clearance value using equations from the well-stirred model (Current Drug Metabolism, 2008, 9, 940-951), where no correction was made plasma protein binding and the blood to plasma concentration ratio was assumed to be one. The extraction ratio (ER) was calculated by dividing the predicted hepatic clearance by species blood flow (Q), where Q is 90, 55, and 21.7 mL/min/kg for mouse, rat and human, respectively

[2] = target: human GluN1/GluN2B NMDA receptors (Homo sapiens (Human), UniProt Q05586+Q13224); experiment: Cell-based calcium flux (FLIPR) assay on cloned human NR1/NR2B ion channels expressed in mammalian cells; conditions: standard assay, glutamate ~EC40, 10 μM glycine
Experimental: (§1) Effects of Test Articles on Cloned Human NR1/NR2B Ion Channels Expressed in Mammalian Cells
(§2) NMDA receptors are ion channels that are highly permeable to Ca^2+ ions, rendering it possible to monitor NMDA receptor function using cell-based calcium flux assay. In this assay, co-agonists glutamate and glycine are added to cells heterologously expressing human GluN1/GluN2B NMDA receptors to initiate cellular Ca^2+ influx. The time course of the changes in intracellular calcium is measured using a fluorescent dye and a FLIPR (Fluorometric Imaging Plate Reader) device.
(§3) Twenty four hours before measurements, the expression of the NMDA receptors in the stable cell line is induced with Tet-On inducible system in the presence of a non-selective NMDA receptor blocker. On the day of the experiment, cell culture media is carefully washed and the cells are loaded with Calcium 5 Dye Kit (Molecular Devices) in dye loading buffer containing 137 mM NaCl, 4 mM KCl, 2 mM CaCl2), 0.5 mM MgCl2(standard assay) or 1.5 mM MgCl2 (HTS assay), 10 mM HEPES and 5 mM D-glucose; pH 7.4. After 1 h incubation at the room temperature, the dye is washed away with the assay buffer (137 mM NaCl (standard assay) or 150 mM (HTS assay), 4 mM KCl (standard assay) or 3 mM (HTS assay), 2 mM CaCl2), 0.01 mM EDTA, 10 mM HEPES and 5 mM D-glucose; pH 7.4) In the FLIPR TETRA reader, various concentrations of the test compounds are added to the cells for 5 min while fluorescence is monitored to detect potential agonist activity. Next, co-agonists, glutamate and glycine are added for another 5 minutes. The concentration of glutamate corresponding to ˜EC40 (standard assay) or EC40 (HTS assay) is used to maximize the assay's signal window and ability to detect NMDA receptor antagonists and negative allosteric modulators. A saturating concentration (10 μM) of glycine is also present in the assay. A non-selective NMDA receptor antagonist, (+)MK-801 is used as a positive control for antagonist activity. The fluorescent signal in the presence of test compounds is quantified and normalized to the signal defined by the appropriate control wells.

[3] = target: human GluN1/GluN2B NMDA receptors (Homo sapiens (Human), UniProt Q13224); experiment: as above; conditions: standard assay, glutamate ~EC40, 10 μM glycine
Experimental: as §1, §2, §3

Chain of human GluN1/GluN2B NMDA receptors (Homo sapiens (Human), UniProt Q05586+Q13224) (Q13224 27-1484, other chains not shown): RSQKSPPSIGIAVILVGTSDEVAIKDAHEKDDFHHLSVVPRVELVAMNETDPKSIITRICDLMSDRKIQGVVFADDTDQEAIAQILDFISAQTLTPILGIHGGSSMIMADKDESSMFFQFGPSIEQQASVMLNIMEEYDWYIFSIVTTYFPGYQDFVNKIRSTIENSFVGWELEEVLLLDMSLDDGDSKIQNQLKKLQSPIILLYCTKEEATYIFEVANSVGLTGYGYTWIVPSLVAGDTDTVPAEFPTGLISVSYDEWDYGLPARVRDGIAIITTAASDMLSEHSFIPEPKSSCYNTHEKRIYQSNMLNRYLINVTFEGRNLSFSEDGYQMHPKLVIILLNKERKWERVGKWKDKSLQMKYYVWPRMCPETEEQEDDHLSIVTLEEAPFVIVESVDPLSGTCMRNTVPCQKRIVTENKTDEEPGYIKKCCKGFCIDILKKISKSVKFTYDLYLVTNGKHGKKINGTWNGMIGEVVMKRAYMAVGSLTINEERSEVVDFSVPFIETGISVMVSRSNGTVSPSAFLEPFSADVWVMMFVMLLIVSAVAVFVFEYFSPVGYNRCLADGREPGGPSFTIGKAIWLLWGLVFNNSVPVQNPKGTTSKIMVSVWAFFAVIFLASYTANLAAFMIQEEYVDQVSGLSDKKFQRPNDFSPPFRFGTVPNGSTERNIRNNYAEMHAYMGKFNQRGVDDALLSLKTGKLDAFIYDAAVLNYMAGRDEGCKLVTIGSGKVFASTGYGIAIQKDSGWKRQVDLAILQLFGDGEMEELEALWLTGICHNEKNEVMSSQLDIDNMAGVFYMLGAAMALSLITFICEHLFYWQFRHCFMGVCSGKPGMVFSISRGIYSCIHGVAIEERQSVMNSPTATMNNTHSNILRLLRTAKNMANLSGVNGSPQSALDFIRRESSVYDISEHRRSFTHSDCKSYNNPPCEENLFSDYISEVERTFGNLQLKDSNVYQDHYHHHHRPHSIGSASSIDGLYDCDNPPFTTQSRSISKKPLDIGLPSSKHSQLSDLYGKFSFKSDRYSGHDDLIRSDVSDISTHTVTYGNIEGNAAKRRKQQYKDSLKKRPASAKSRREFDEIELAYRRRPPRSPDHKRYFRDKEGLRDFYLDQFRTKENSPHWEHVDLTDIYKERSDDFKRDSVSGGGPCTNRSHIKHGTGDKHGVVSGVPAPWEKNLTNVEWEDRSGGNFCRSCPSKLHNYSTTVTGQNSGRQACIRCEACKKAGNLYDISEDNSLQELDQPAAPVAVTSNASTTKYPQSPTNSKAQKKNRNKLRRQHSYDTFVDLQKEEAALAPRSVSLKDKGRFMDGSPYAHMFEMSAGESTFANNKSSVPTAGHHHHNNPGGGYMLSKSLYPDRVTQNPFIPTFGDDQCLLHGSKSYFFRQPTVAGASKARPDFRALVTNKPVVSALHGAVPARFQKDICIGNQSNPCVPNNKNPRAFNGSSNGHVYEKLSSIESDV
Chain of human GluN1/GluN2B NMDA receptors (Homo sapiens (Human), UniProt Q13224) (Q13224 27-1484, other chains not shown): as above

Extraction Ratio @ 1 μM [1] | IC50 [2] | IC50 [3] | SMILES
0.41 | 42 nM |  | CN(C)C(=O)Cn1ncc2ncc(-c3ccc(F)c(C(F)F)c3)nc21 [Example 10, 2-[6-[3-(Difluoromethyl)-4-fluoro-phenyl]pyrazolo[3,4-b]pyrazin-1-yl]-N,N-dimethyl-acetamide]
 | 59 nM |  | CN(C)C(=O)Cn1nc(F)c2ncc(-c3ccc(F)c(C(F)F)c3)nc21 [Example 11, 2-[6-[3-(Difluoromethyl)-4-fluoro-phenyl]-3-fluoro-pyrazolo[3,4-b]pyrazin-1-yl]-N,N-dimethyl-acetamide]
0.54 | 36 nM |  | CN(C)C(=O)Cn1ncc2ncc(-c3ccc(Cl)c(C(F)F)c3)nc21 [Example 12, 2-[6-[4-Chloro-3-(difluoromethyl)phenyl]pyrazolo[3,4-b]pyrazin-1-yl]-N,N-dimethyl-acetamide]
 | 72 nM |  | CN(C)C(=O)Cn1ncc2ncc(-c3ccc(F)c(OC(F)F)c3)nc21 [Example 16, 2-[6-[3-(Difluoromethoxy)-4-fluoro-phenyl]pyrazolo[3,4-b]pyrazin-1-yl]-N,N-dimethyl-acetamide]
 | 64 nM |  | CN(C)C(=O)Cn1ncc2ncc(-c3ccc(Cl)c(OC(F)F)c3)nc21 [Example 18, 2-[6-[4-Chloro-3-(difluoromethoxy)phenyl]pyrazolo[3,4-b]pyrazin-1-yl]-N,N-dimethyl-acetamide]
 | 907 nM |  | Cc1c(F)cc(-c2cnc3cnn(CC(=O)N(C)C)c3n2)cc1F [Example 20, 2-[6-(3,5-Difluoro-4-methyl-phenyl)pyrazolo[3,4-b]pyrazin-1-yl]-N,N-dimethyl-acetamide]
 | 489 nM |  | CN(C)C(=O)Cn1ncc2ncc(-c3cc(F)c(F)c(F)c3)nc21 [Example 22, N,N-Dimethyl-2-[6-(3,4,5-trifluorophenyl)pyrazolo[3,4-b]pyrazin-1-yl]acetamide]
<0.298 | 37 nM |  | O=C(Cn1ncc2ncc(-c3ccc(F)c(C(F)F)c3)nc21)N1CCC1 [Example 24, 1-(Azetidin-1-yl)-2-[6-[3-(difluoromethyl)-4-fluoro-phenyl]pyrazolo[3,4-b]pyrazin-1-yl]ethanone]
 | 126 nM |  | CC(F)(F)c1cc(-c2cnc3cnn(CC(=O)N4CCC4)c3n2)ccc1F [Example 27, 1-(Azetidin-1-yl)-2-[6-[3-(1,1-difluoroethyl)-4-fluoro-phenyl]pyrazolo[3,4-b]pyrazin-1-yl]ethanone]
0.45 |  | 59 nM | O=C(Cn1ncc2ncc(-c3ccc(F)c(OC(F)F)c3)nc21)N1CCC1 [Example 28, 1-(Azetidin-1-yl)-2-[6-[3-(difluoromethoxy)-4-fluoro-phenyl]pyrazolo[3,4-b]pyrazin-1-yl]ethanone]
 | 122 nM |  | CC1CN(C(=O)Cn2ncc3ncc(-c4ccc(F)c(C(F)F)c4)nc32)C1 [Example 30, 2-[6-[3-(Difluoromethyl)-4-fluoro-phenyl]pyrazolo[3,4-b]pyrazin-1-yl]-1-(3-methylazetidin-1-yl)ethanone]
<0.298 | 37 nM |  | O=C(Cn1ncc2ncc(-c3ccc(F)c(C(F)F)c3)nc21)N1CC(F)C1 [Example 32, 2-[6-[3-(Difluoromethyl)-4-fluoro-phenyl]pyrazolo[3,4-b]pyrazin-1-yl]-1-(3-fluoroazetidin-1-yl)ethanone]
0.46 |  | 92 nM | O=C(Cn1ncc2ncc(-c3ccc(F)c(OC(F)F)c3)nc21)N1CC(F)C1 [Example 37, 2-[6-[3-(Difluoromethoxy)-4-fluoro-phenyl]pyrazolo[3,4-b]pyrazin-1-yl]-1-(3-fluoroazetidin-1-yl)ethanone]
 | 158 nM |  | Cc1nnc(Cn2ncc3ncc(-c4ccc(F)c(C(F)F)c4)nc32)o1 [Example 40, 2-[[6-[3-(Difluoromethyl)-4-fluoro-phenyl]pyrazolo[3,4-b]pyrazin-1-yl]methyl]-5-methyl-1,3,4-oxadiazole]
 | 285 nM |  | N#Cc1cncc(Cn2ncc3ncc(-c4ccc(F)c(C(F)F)c4)nc32)c1 [Example 45, 5-[[6-[3-(Difluoromethyl)-4-fluoro-phenyl]pyrazolo[3,4-b]pyrazin-1-yl]methyl]pyridine-3-carbonitrile]
 | > 3000 nM |  | O=C1NCC(Cn2ncc3ncc(-c4ccc(F)c(OC(F)F)c4)nc32)O1 (centres unmarked) [Example 51, 5-((6-(3-(Difluoromethoxy)-4-fluorophenyl)-1H-pyrazolo[3,4-b]pyrazin-1-yl)methyl)oxazolidin-2-one]
 | > 3000 nM |  | CN(C)C(=O)Cn1ncc2ncc(-c3ccc(C(C)(F)F)cc3)nc21 [Example 53, 2-(6-(4-(1,1-Difluoroethyl)phenyl)-1H-pyrazolo[3,4-b]pyrazin-1-yl)-N,N-dimethylacetamide]
